Tests used:
[1] = system: type 2 dehydratase from E. coli; conditions: cited from earlier work
[2] = system: type 1 dehydratase from P. asaccharolyticus; conditions: cited from earlier work
N[C@@H](CO)C(=O)O = test: purified protein, by the assay type

Compound | type of inhibition [1] | type of inhibition [2] | kcat/Km (N[C@@H](CO)C(=O)O)
N[C@@H](CS)C(=O)O [L-cysteine] | competitive inhibitors | competitive inhibitor | 
N[C@H](CO)C(=O)O [D-serine] | competitive inhibitors |  | 
(Legionella pneumophila str. Lens) |  |  | 165000 ± 8000 M⁻¹ s⁻¹

— article PMC4263429 (Biochemistry, 2014)
